Measurements: patent US9457033B2, “Steroid alkaloids and uses thereof as antimicrobial agents against electron transport-deficient microbes and as potentiators for antimicrobial agents against pathogenic bacteria” (priority 2011, dated 2016)
In brackets after ≈: the same amount, converted by molar mass. Like-named read-outs stand apart in the source and are kept apart here.

Tests used:
S. aureus CF4B-L = test: MIC, microdilution in CAMHB 24 h; type: cell-based, Staphylococcus aureus; conditions: CF4B-L; for MIC: Staphylococcus aureus, CF4BL
S. aureus ATCC 29213 [1] = test: Checkerboard assay, aminoglycoside and tomatidine; type: cell-based, Staphylococcus aureus; conditions: for MIC: Staphylococcus aureus, ATCC29213, checkerboard
S. aureus CF7A-L = test: MIC, microdilution in CAMHB 24 h; type: cell-based, Staphylococcus aureus; conditions: CF7A-L; for MIC: Staphylococcus aureus
S. aureus CF8E-L = test: MIC, microdilution in CAMHB 24 h; type: cell-based, Staphylococcus aureus; conditions: CF8E-L; for MIC: Staphylococcus aureus, CF8EL
S. aureus SHY97-3906 = test: MIC, microdilution in CAMHB 24 h; type: cell-based, Staphylococcus aureus; conditions: for MIC: Staphylococcus aureus, SHY973906
S. aureus CF1A-L = test: MIC, microdilution in CAMHB 24 h; type: cell-based, Staphylococcus aureus; conditions: CF1A-L; for MIC: Staphylococcus aureus, CF1AL
S. aureus ATCC 29213 [2] = test: Time-kill experiments, aminoglycoside alone or with tomatidine (FIGS. 8-10); conditions: alone at ≧1×MIC (1 μg/ml); regrowth observed within 24 h; FIG. 9
S. aureus Mu50 = test: MIC, microdilution in CAMHB 24 h; type: cell-based, Staphylococcus aureus; conditions: for MIC: Staphylococcus aureus
S. aureus ATCC 29213 [3] = test: MIC, microdilution in CAMHB 24 h, with or without tomatidine/compound; type: cell-based, Staphylococcus aureus; conditions: for MIC: Staphylococcus aureus
S. aureus CF35A-L = test: MIC, microdilution in CAMHB 24 h; type: cell-based, Staphylococcus aureus; conditions: CF35A-L; for MIC: Staphylococcus aureus
S. aureus Sa220c = test: MIC, microdilution in CAMHB 24 h; type: cell-based, Staphylococcus aureus; conditions: Sa220c; for MIC: Staphylococcus aureus
S. aureus CF6B-L = test: MIC, microdilution in CAMHB 24 h; type: cell-based, Staphylococcus aureus; conditions: CF6B-L; for MIC: Staphylococcus aureus, CF6BL
S. aureus Sa228c = test: MIC, microdilution in CAMHB 24 h; type: cell-based, Staphylococcus aureus; conditions: for MIC: Staphylococcus aureus, SA228C
S. aureus Newman = test: MIC, microdilution in CAMHB 24 h; type: cell-based, Staphylococcus aureus; conditions: Newman; for MIC: Staphylococcus aureus
S. aureus CF9A-L = test: MIC, microdilution in CAMHB 24 h; type: cell-based, Staphylococcus aureus; conditions: CF9A-L; for MIC: Staphylococcus aureus
S. aureus ATCC BAA-41 = test: MIC, microdilution in CAMHB 24 h; type: cell-based, Staphylococcus aureus; conditions: for MIC: Staphylococcus aureus
S. aureus 8325-4 = test: MIC, microdilution in CAMHB 24 h; type: cell-based, Staphylococcus aureus; conditions: 8325-4; for MIC: Staphylococcus aureus, 83254
S. aureus CF07-L = test: MIC, microdilution in CAMHB 24 h; type: cell-based, Staphylococcus aureus; conditions: CF07-L; for MIC: Staphylococcus aureus, CF07L
[4] = 8 μg/ml of tomatidine, read-out: MIC +TO
[5] = Human (CF lungs), read-out: MIC
[6] = absence of tomatidine, read-out: MIC −TO
[7] = Human (CF lungs), MRSA, read-out: MIC

## NC[C@H]1O[C@H](O[C@H]2[C@H](O)[C@@H](O[C@H]3O[C@H](CO)[C@@H](O)[C@H](N)[C@H]3O)[C@H](N)C[C@@H]2N)[C@H](N)C[C@@H]1O [Tobramycin, tobramycin]
S. aureus CF4B-L; 8 μg/ml of tomatidine
  Fold (−TO/+TO): 4-16 fold
S. aureus CF4B-L; [4]
  MIC: 0.06 to 0.12 µg/mL (≈ 0.128 to 0.257 µM)
S. aureus CF4B-L; [5]
  MIC: 0.5 to 1 µg/mL (≈ 1.07 to 2.14 µM)
S. aureus CF4B-L; [6]
  MIC: 0.5 to 1 µg/mL (≈ 1.07 to 2.14 µM)
S. aureus ATCC 29213 [1]; tomatidine 0 μg/ml
  MIC: 0.25 to 0.5 µg/mL
S. aureus ATCC 29213 [1]; tomatidine 0.06 μg/ml
  MIC: 0.25 µg/mL
S. aureus ATCC 29213 [1]; tomatidine 0.12 μg/ml
  MIC: 0.03 to 0.12 µg/mL
S. aureus ATCC 29213 [1]; tomatidine 0.25 μg/ml
  MIC: 0.03 to 0.06 µg/mL
S. aureus ATCC 29213 [1]; tomatidine 0.5 μg/ml
  MIC: 0.03 µg/mL
S. aureus ATCC 29213 [1]; tomatidine 1 μg/ml
  MIC: 0.03 to 0.06 µg/mL
S. aureus ATCC 29213 [1]; tomatidine 2 μg/ml
  MIC: 0.03 to 0.06 µg/mL
S. aureus ATCC 29213 [1]; tomatidine 4 μg/ml
  MIC: 0.03 to 0.06 µg/mL
S. aureus ATCC 29213 [1]; tomatidine 8 μg/ml
  MIC: 0.06 µg/mL
S. aureus ATCC 29213 [1]; aminoglycoside with tomatidine, tomatidine MIC considered 32 μg/ml, values overestimated
  FIC index: ≦0.133
S. aureus CF7A-L; 8 μg/ml of tomatidine
  Fold (−TO/+TO): 2-8 fold
S. aureus CF7A-L; CF7AL, ant(4′)-Ia, 8 μg/ml of tomatidine, read-out: MIC +TO
  MIC: 128 to 512 µg/mL (≈ 274 to 1100 µM)
S. aureus CF7A-L; CF7AL, ant(4′)-Ia, absence of tomatidine, read-out: MIC −TO
  MIC: 1020 µg/mL (≈ 2190 µM)
S. aureus CF7A-L; [7]
  MIC: 1020 µg/mL (≈ 2190 µM)
S. aureus CF8E-L; 8 μg/ml of tomatidine
  Fold (−TO/+TO): 4 fold
S. aureus CF8E-L; [4]
  MIC: 0.25 µg/mL (≈ 0.535 µM)
S. aureus CF8E-L; [5]
  MIC: 1 µg/mL (≈ 2.14 µM)
S. aureus CF8E-L; [6]
  MIC: 1 µg/mL (≈ 2.14 µM)
S. aureus SHY97-3906; SHY-3906, 8 μg/ml of tomatidine
  Fold (−TO/+TO): 8 fold
S. aureus SHY97-3906; SHY97-3906, Cow (mastitis), read-out: MIC
  MIC: 0.25 µg/mL (≈ 0.535 µM)
S. aureus SHY97-3906; SHY-3906, 8 μg/ml of tomatidine, read-out: MIC +TO
  MIC: 0.03 µg/mL (≈ 0.0642 µM)
S. aureus SHY97-3906; SHY-3906, absence of tomatidine, read-out: MIC −TO
  MIC: 0.25 µg/mL (≈ 0.535 µM)
S. aureus CF1A-L; 8 μg/ml of tomatidine
  Fold (−TO/+TO): 4-16 fold
S. aureus CF1A-L; [4]
  MIC: 0.06 to 0.25 µg/mL (≈ 0.128 to 0.535 µM)
S. aureus CF1A-L; [5]
  MIC: 1 µg/mL (≈ 2.14 µM)
S. aureus CF1A-L; [6]
  MIC: 1 µg/mL (≈ 2.14 µM)
S. aureus ATCC 29213 [2]
  time-kill activity alone: bactericidal
S. aureus Mu50; Mu50, 8 μg/ml of tomatidine
  Fold (−TO/+TO): 8 fold
S. aureus Mu50; Mu50, aac(6′)-aph(2″), ant(4′)-Ia, 8 μg/ml of tomatidine, read-out: MIC +TO
  MIC: 128 µg/mL (≈ 274 µM)
S. aureus Mu50; Mu50, aac(6′)-aph(2″), ant(4′)-Ia, absence of tomatidine, read-out: MIC −TO
  MIC: 1020 µg/mL (≈ 2190 µM)
S. aureus Mu50; Mu50, Human (SSTI), MRSA, VISA, read-out: MIC
  MIC: 1020 µg/mL (≈ 2190 µM)
S. aureus ATCC 29213 [3]; ATCC 29123, 8 μg/ml of tomatidine
  Fold (−TO/+TO): 4-16 fold
S. aureus ATCC 29213 [3]; ATCC 29213, tomatidine at 8 μg/ml
  Fold (−TO/+TO): 4-8 fold
S. aureus ATCC 29213 [3]; ATCC 29123 / ATCC 29213, ATCC 29123, 8 μg/ml of tomatidine, read-out: MIC +TO
  MIC: 0.03 to 0.06 µg/mL (≈ 0.0642 to 0.128 µM)
S. aureus ATCC 29213 [3]; ATCC 29123 / ATCC 29213, ATCC 29123, absence of tomatidine, read-out: MIC −TO
  MIC: 0.25 to 0.5 µg/mL (≈ 0.535 to 1.07 µM)
S. aureus ATCC 29213 [3]; ATCC29213, ATCC 29213, Human (SSTI), read-out: MIC
  MIC: 0.25 to 0.5 µg/mL (≈ 0.535 to 1.07 µM)
S. aureus ATCC 29213 [3]; ATCC29213, ATCC 29213, absence of tomatidine, read-out: MIC −TO
  MIC: 0.25 to 0.5 µg/mL (≈ 0.535 to 1.07 µM)
S. aureus ATCC 29213 [3]; ATCC29213, ATCC 29213, presence of tomatidine at 8 μg/ml, read-out: MIC +TO
  MIC: 0.06 µg/mL
S. aureus CF35A-L; 8 μg/ml of tomatidine
  Fold (−TO/+TO): 8-16 fold
S. aureus CF35A-L; CF35AL, 8 μg/ml of tomatidine, read-out: MIC +TO
  MIC: 0.06 µg/mL (≈ 0.128 µM)
S. aureus CF35A-L; CF35AL, absence of tomatidine, read-out: MIC −TO
  MIC: 0.5 to 1 µg/mL (≈ 1.07 to 2.14 µM)
S. aureus CF35A-L; [7]
  MIC: 0.5 to 1 µg/mL (≈ 1.07 to 2.14 µM)
S. aureus Sa220c; 8 μg/ml of tomatidine
  Fold (−TO/+TO): 4-16 fold
S. aureus Sa220c; [4]
  MIC: 0.06 to 0.12 µg/mL (≈ 0.128 to 0.257 µM)
S. aureus Sa220c; Human (SSTI), MRSA, read-out: MIC
  MIC: 0.5 to 1 µg/mL (≈ 1.07 to 2.14 µM)
S. aureus Sa220c; [6]
  MIC: 0.5 to 1 µg/mL (≈ 1.07 to 2.14 µM)
S. aureus CF6B-L; 8 μg/ml of tomatidine
  Fold (−TO/+TO): 4-16 fold
S. aureus CF6B-L; aac(6′)-aph(2″), 8 μg/ml of tomatidine, read-out: MIC +TO
  MIC: 16 to 64 µg/mL (≈ 34.2 to 137 µM)
S. aureus CF6B-L; aac(6′)-aph(2″), absence of tomatidine, read-out: MIC −TO
  MIC: 256 µg/mL (≈ 548 µM)
S. aureus CF6B-L; [5]
  MIC: 256 µg/mL (≈ 548 µM)
S. aureus Sa228c; Sa228c, 8 μg/ml of tomatidine
  Fold (−TO/+TO): 4-8 fold
S. aureus Sa228c; read-out: MIC +TO
  MIC: 128 to 256 µg/mL (≈ 274 to 548 µM)
S. aureus Sa228c; read-out: MIC −TO
  MIC: 1020 µg/mL (≈ 2190 µM)
S. aureus Newman; 8 μg/ml of tomatidine
  Fold (−TO/+TO): 2-8 fold
S. aureus Newman; [4]
  MIC: 0.06 to 0.12 µg/mL (≈ 0.128 to 0.257 µM)
S. aureus Newman; Human (Osteo), read-out: MIC
  MIC: 0.25 to 0.5 µg/mL (≈ 0.535 to 1.07 µM)
S. aureus Newman; [6]
  MIC: 0.25 to 0.5 µg/mL (≈ 0.535 to 1.07 µM)
S. aureus CF9A-L; 8 μg/ml of tomatidine
  Fold (−TO/+TO): 4-8 fold
S. aureus CF9A-L; CF9AL, ant(4′)-Ia, 8 μg/ml of tomatidine, read-out: MIC +TO
  MIC: 64 to 256 µg/mL (≈ 137 to 548 µM)
S. aureus CF9A-L; CF9AL, ant(4′)-Ia, absence of tomatidine, read-out: MIC −TO
  MIC: 512 to 1020 µg/mL (≈ 1100 to 2190 µM)
S. aureus CF9A-L; [7]
  MIC: 512 to 1020 µg/mL (≈ 1100 to 2190 µM)
S. aureus ATCC BAA-41; ATCC BAA-41, 8 μg/ml of tomatidine
  Fold (−TO/+TO): 4 fold
S. aureus ATCC BAA-41; ATCC BAA-41 / MRSA, ATCC BAA-41, Human (HA), MRSA, read-out: MIC
  MIC: 512 µg/mL (≈ 1100 µM)
S. aureus ATCC BAA-41; ATCCBAA41, ATCC BAA-41, ant(4′)-Ia, 8 μg/ml of tomatidine, read-out: MIC +TO
  MIC: 128 µg/mL (≈ 274 µM)
S. aureus ATCC BAA-41; ATCCBAA41, ATCC BAA-41, ant(4′)-Ia, absence of tomatidine, read-out: MIC −TO
  MIC: 512 µg/mL (≈ 1100 µM)
S. aureus 8325-4; 8 μg/ml of tomatidine
  Fold (−TO/+TO): 4 fold
S. aureus 8325-4; [4]
  MIC: 0.03 to 0.06 µg/mL (≈ 0.0642 to 0.128 µM)
S. aureus 8325-4; Laboratory strain, read-out: MIC
  MIC: 0.12 to 0.25 µg/mL (≈ 0.257 to 0.535 µM)
S. aureus 8325-4; [6]
  MIC: 0.12 to 0.25 µg/mL (≈ 0.257 to 0.535 µM)
S. aureus CF07-L; 8 μg/ml of tomatidine
  Fold (−TO/+TO): 4-8 fold
S. aureus CF07-L; [4]
  MIC: 0.06 to 0.12 µg/mL (≈ 0.128 to 0.257 µM)
S. aureus CF07-L; [5]
  MIC: 0.5 to 1 µg/mL (≈ 1.07 to 2.14 µM)
S. aureus CF07-L; [6]
  MIC: 0.5 to 1 µg/mL (≈ 1.07 to 2.14 µM)
